Test results taken from the supplement of paper PMC11451515.

Key:
Conditions in all cases: 48 h
SEM cells [1] = assay: AUC of viability dose-response curve (% viability x log10 dose units); higher = less sensitive
Method in brief: (§1)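 Area under the curve was integrated by trapezoidal rule from a log-logistic fit of normalised viability, with curves exceeding full viability scaled and quality-control failures removed. The fit had four parameters over log10 doses. Viability came from CellTiter-Glo One luminescence, normalised per plate to DMSO and cell-free wells, after leukemia cells adapted to each medium (500 or 1000 cells/well, 1536-well plates) were exposed to library compounds in DMSO for 48 h at 37°C. The 11 threefold doses ran from 47 μM to 0.79 nM.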

SEM cells [2] = assay: cell viability relative to DMSO control; higher = less cytotoxic
Method in brief: (§2)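 Viability is expressed as a percentage of DMSO wells within each plate, and cell-free wells serve as background. Seeding densities in the 1536-well plates (5 μl) were 500 cells/well for NOMO1 or SEM leukemia cells and 1000 cells/well for P12-Ichikawa. Each line was adapted for at least four passages in each medium. Library compounds in DMSO were pin-dosed at 47 μM to 0.79 nM (11 points, threefold), and CellTiter-Glo One luminescence was read after 48 h at 37°C.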

NOMO1 [3] = assay: as above
Method in brief: as §2

P12-Ichikawa [4] = assay: as above
Method in brief: as §2

NOMO1 [5] = assay: AUC of viability dose-response curve (% viability x log10 dose units); higher = less sensitive
Method in brief: as §1

P12-Ichikawa [6] = assay: as above
Method in brief: as §1

N#C/N=C(\NCCCCCCOc1ccc(Cl)cc1)Nc1ccncc1
SEM cells [1]
Conditions	AUC of viability dose-response curve
HPLM + 10% dialyzed FBS	48.4
RPMI 5 mM glucose + 10% FBS	34.6
RPMI 5 mM glucose + 10% dialyzed FBS	38

cell viability [%]
Conditions	NOMO1 [3]	P12-Ichikawa [4]	SEM cells [2]
HPLM + 10% dialyzed FBS, 0.000781 µM	49.3	92.5	18.5
HPLM + 10% dialyzed FBS, 0.00234 µM	47.6	30.8	14.6
HPLM + 10% dialyzed FBS, 0.00702 µM	19.9	7.9	11.7
HPLM + 10% dialyzed FBS, 0.0211 µM	15.5	7.51	11.6
HPLM + 10% dialyzed FBS, 0.0632 µM	12.6	7.45	10.7
HPLM + 10% dialyzed FBS, 0.19 µM	11.9	6.55	9.6
HPLM + 10% dialyzed FBS, 0.569 µM	9.75	6.06	9.68
HPLM + 10% dialyzed FBS, 1.71 µM	9.76	4.77	8.04
HPLM + 10% dialyzed FBS, 5.12 µM	9.75	5.75	7.4
HPLM + 10% dialyzed FBS, 15.4 µM	8.47	5.32	6.52
HPLM + 10% dialyzed FBS, 46.1 µM	6.05	2.54	4.48
RPMI 5 mM glucose + 10% FBS, 0.000781 µM	61	101	11
RPMI 5 mM glucose + 10% FBS, 0.00234 µM	41.9	66.3	12.1
RPMI 5 mM glucose + 10% FBS, 0.00702 µM	22	8.62	9.46
RPMI 5 mM glucose + 10% FBS, 0.0211 µM	19.2	9.03	9.27
RPMI 5 mM glucose + 10% FBS, 0.0632 µM	15.7	8.69	8.63
RPMI 5 mM glucose + 10% FBS, 0.19 µM	9.97	8.93	8.09
RPMI 5 mM glucose + 10% FBS, 0.569 µM	11.4	8.18	6.61
RPMI 5 mM glucose + 10% FBS, 1.71 µM	8.82	6.73	4.33
RPMI 5 mM glucose + 10% FBS, 5.12 µM	9.25	5.76	4.15
RPMI 5 mM glucose + 10% FBS, 15.4 µM	8.91	5.53	3.83
RPMI 5 mM glucose + 10% FBS, 46.1 µM	6.02	3.94	1.91
RPMI 5 mM glucose + 10% dialyzed FBS, 0.000781 µM	81.6	117	15
RPMI 5 mM glucose + 10% dialyzed FBS, 0.00234 µM	58.1	45.9	11
RPMI 5 mM glucose + 10% dialyzed FBS, 0.00702 µM	26.1	8.98	9.5
RPMI 5 mM glucose + 10% dialyzed FBS, 0.0211 µM	21	8.5	8.99
RPMI 5 mM glucose + 10% dialyzed FBS, 0.0632 µM	12.5	8.43	8.27
RPMI 5 mM glucose + 10% dialyzed FBS, 0.19 µM	12.2	8.45	8.14
RPMI 5 mM glucose + 10% dialyzed FBS, 0.569 µM	9.8	8.57	7.35
RPMI 5 mM glucose + 10% dialyzed FBS, 1.71 µM	8.26	6.65	6.51
RPMI 5 mM glucose + 10% dialyzed FBS, 5.12 µM	7.27	6.26	5.93
RPMI 5 mM glucose + 10% dialyzed FBS, 15.4 µM	6.87	5.72	4.36
RPMI 5 mM glucose + 10% dialyzed FBS, 46.1 µM	5.38	2.79	2.76

COc1cc2c(Oc3ccc4[nH]c(C)cc4c3F)ncnc2cc1OCCCN1CCCC1
AUC of viability dose-response curve
Conditions	NOMO1 [5]	P12-Ichikawa [6]	SEM cells [1]
HPLM + 10% dialyzed FBS	453	448	382
RPMI 5 mM glucose + 10% FBS	452	449	380
RPMI 5 mM glucose + 10% dialyzed FBS	463	448	356

CCN(CC)C(=O)C1=CC=C(C=C1)C/2=C/C3(CCNCC3)OC4=CC=CC(=C24)O
AUC of viability dose-response curve
Conditions	NOMO1 [5]	P12-Ichikawa [6]	SEM cells [1]
HPLM + 10% dialyzed FBS	287	459	472
RPMI 5 mM glucose + 10% FBS	329	449	464
RPMI 5 mM glucose + 10% dialyzed FBS	345	449	464

CN(C)/N=N/c1nc[nH]c1C(N)=O
AUC of viability dose-response curve
Conditions	NOMO1 [5]	P12-Ichikawa [6]	SEM cells [1]
HPLM + 10% dialyzed FBS	416	422	467
RPMI 5 mM glucose + 10% FBS	435	410	462
RPMI 5 mM glucose + 10% dialyzed FBS	392	374	307

SEM cells [2], HPLM + 10% dialyzed FBS
Conditions	cell viability [%]
0.000781 µM	121
0.00234 µM	122
0.00702 µM	117
0.0211 µM	126
0.0632 µM	125
0.19 µM	120
0.569 µM	128
1.71 µM	119
5.12 µM	123
15.4 µM	106
46.1 µM	105

C[S+](=O)([O-])CCNCc1ccc(-c2ccc3ncnc(Nc4ccc(OCc5cccc(F)c5)c(Cl)c4)c3c2)o1
AUC of viability dose-response curve
Conditions	NOMO1 [5]	P12-Ichikawa [6]	SEM cells [1]
HPLM + 10% dialyzed FBS	456	448	442
RPMI 5 mM glucose + 10% FBS	451	453	418
RPMI 5 mM glucose + 10% dialyzed FBS	444	429	440

C=CCO/N=C(/C[C@H]1O[C@@H]2O[C@]3(C)CC[C@H]4[C@H](C)CC[C@@H]([C@H]1C)[C@@]24OO3)[C@H]1O[C@@H]2O[C@]3(C)CC[C@H]4[C@H](C)CC[C@@H]([C@H]1C)[C@@]24OO3
AUC of viability dose-response curve
Conditions	NOMO1 [5]	P12-Ichikawa [6]	SEM cells [1]
HPLM + 10% dialyzed FBS	347	397	350
RPMI 5 mM glucose + 10% FBS	340	357	329
RPMI 5 mM glucose + 10% dialyzed FBS	338	359	328

COc1ccc2c(c1OC)C(=O)O[C@H]2[C@H]1c2c(cc3c(c2OC)OCO3)CCN1C
AUC of viability dose-response curve
Conditions	NOMO1 [5]	P12-Ichikawa [6]	SEM cells [1]
HPLM + 10% dialyzed FBS	246	284	263
RPMI 5 mM glucose + 10% FBS	273	277	233
RPMI 5 mM glucose + 10% dialyzed FBS	277	294	247

N#Cc1ccc(C(c2ccc(C#N)cc2)n2cncn2)cc1
AUC of viability dose-response curve
Conditions	HPLM + 10% dialyzed FBS	RPMI 5 mM glucose + 10% FBS	RPMI 5 mM glucose + 10% dialyzed FBS
NOMO1 [5]	442	450	466
P12-Ichikawa [6]	461	460	451

SEM cells [2], HPLM + 10% dialyzed FBS
Conditions	cell viability [%]
0.000781 µM	121
0.00234 µM	118
0.00702 µM	131
0.0211 µM	130
0.0632 µM	40.1
0.19 µM	129
0.569 µM	140
1.71 µM	131
5.12 µM	54.4
15.4 µM	110
46.1 µM	111

COc1ccccc1N1CCN(CCN(C(=O)C2CCCCC2)c2ccccn2)CC1
AUC of viability dose-response curve
Conditions	NOMO1 [5]	P12-Ichikawa [6]	SEM cells [1]
HPLM + 10% dialyzed FBS	466	470	468
RPMI 5 mM glucose + 10% FBS	469	472	467
RPMI 5 mM glucose + 10% dialyzed FBS	468	473	472

cell viability [%], SEM cells [2]
Conditions	HPLM + 10% dialyzed FBS	RPMI 5 mM glucose + 10% FBS
0.000781 µM	97.9	104
0.00234 µM	121	111
0.00702 µM	122	131
0.0211 µM	112	123
0.0632 µM	122	124
0.19 µM	120	135
0.569 µM	137	132
1.71 µM	133	131
5.12 µM	127	130
15.4 µM	122	111
46.1 µM	122	126

Nc1cccc2c1C(=O)N(C1CCC(=O)NC1=O)C2=O (stereo not given)
AUC of viability dose-response curve
Conditions	NOMO1 [5]	P12-Ichikawa [6]	SEM cells [1]
HPLM + 10% dialyzed FBS	462	436	462
RPMI 5 mM glucose + 10% FBS	452	448	349
RPMI 5 mM glucose + 10% dialyzed FBS	466	450	388

SEM cells [2], RPMI 5 mM glucose + 10% FBS
Conditions	cell viability [%]
0.000781 µM	117
0.00234 µM	126
0.00702 µM	103
0.0211 µM	98
0.0632 µM	96.9
0.19 µM	93.9
0.569 µM	76.6
1.71 µM	72.5
5.12 µM	80.2
15.4 µM	64.1
46.1 µM	37.7
